Source: patent publication US10689383B2, “Optionally fused heterocyclyl-substituted derivatives of pyrimidine useful for the treatment of inflammatory, metabolic, oncologic and autoimmune diseases” (NUEVOLUTION A/S, priority 2014, dated 2020)

Assays:
[1] = target: T1, human RORγt (Ligand Binding Domain) (Homo sapiens, UniProt P51449); assay: Fluorescence Polarization (FP) Assay; conditions: Fluorescence Polarization (FP) Assay; values given as upper bounds of activity ranges; read-out: FP activity range
T1 construct: purchased Crelux (Planegg, Germany) batch no PC5032-1
T1 sequence (P51449 269-508 limits assumed): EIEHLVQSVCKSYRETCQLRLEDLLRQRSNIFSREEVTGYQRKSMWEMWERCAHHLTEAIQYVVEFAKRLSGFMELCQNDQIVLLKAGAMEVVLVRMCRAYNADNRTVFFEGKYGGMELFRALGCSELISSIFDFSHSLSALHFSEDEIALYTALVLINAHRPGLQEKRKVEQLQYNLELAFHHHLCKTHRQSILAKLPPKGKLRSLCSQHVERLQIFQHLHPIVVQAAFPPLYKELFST
Summary of the method: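 In vitro FP binding assay monitoring ligand binding within the ligand binding pocket. Probe is a TAMRA-labelled RORγt ligand (MW 910 g/mole); DMSO served as negative control.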

[2] = target: T2, yeast Gal4-DNA binding domain fused to the ligand binding domain of human RORγ (Homo sapiens, UniProt P51449); assay: RORγ Reporter Assay (Gal4); format: cell-based; conditions: values given as lower bounds of ranges; for Gal4 activity range @ 0.1 μM (% inhibition): RORγ Reporter Assay (Gal4) at 0.1 μM; for Gal4 activity range @ 1 μM (% inhibition): RORγ Reporter Assay (Gal4) at 1 μM
T2 construct: host or cells: HEK293t
T2 sequence (P51449 269-508 limits assumed): T1 sequence (P51449 269-508 limits assumed)
Summary of the method: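 HEK293t reporter cells expressing the hybrid, with Gal4-UAS-driven firefly luciferase, treated in triplicate with compound at 1,000 nM and 100 nM (0.1% DMSO) in medium with 10% charcoal-stripped FBS for 24 h at 37 °C. Luminescence read; percent reduction of RLU calculated relative to vehicle.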

Row | Compound | IC50 [1] | Gal4 activity range @ 0.1 μM (% inhibition) [2] | Gal4 activity range @ 1 μM (% inhibition) [2]
1 | Fc1c(NCc2ccc(N3CCOCC3)cc2)ncnc1N1CCCC1c1ccc(C(F)(F)F)cc1 (stereo not drawn) [Example 56, 5-fluoro-N-[(4-morpholinophenyl)methyl]-6-[2-[4-(trifluoromethyl)phenyl]pyrrolidin-1-yl]pyrimidin-4-amine] | < 2000 nM | – | >20 % inhibition
2 | CC1CC(c2ccc(C(F)(F)F)cc2)N(c2ncnc(NCc3ccc(CC(N)=O)cc3)c2F)C1 (stereo not drawn) [Example 248, 2-[4-[[[5-fluoro-6-[4-methyl-2-[4-(trifluoromethyl)phenyl]pyrrolidin-1-yl]pyrimidin-4-yl]amino]methyl]phenyl]acetamide] | < 1000 nM | >20 % inhibition | >80 % inhibition
3 | Fc1c(NCc2ccc(C(F)(F)F)nc2)ncnc1N1CCCC1c1ccc(C(F)(F)F)cc1 (stereo not drawn) [Example 126, 5-fluoro-6-[2-[4-(trifluoromethyl)phenyl]pyrrolidin-1-yl]-N-[[6-(trifluoromethyl)-3-pyridyl]methyl]pyrimidin-4-amine] | < 2000 nM | >20 % inhibition | >50 % inhibition
4 | CC1(CNc2ncnc(N3CCOC[C@@H]3c3ccc(C(F)(F)F)cc3)c2F)CCCCC1O (stereo partly drawn) [Example 295, 2-[[[5-fluoro-6-[(3S)-3-[4-(trifluoromethyl)phenyl]morpholin-4-yl]pyrimidin-4-yl]amino]methyl]-2-methyl-cyclohexanol] | < 500 nM | >20 % inhibition | >80 % inhibition
5 | CS(=O)(=O)CC1(CNc2ncnc(N3CCOC[C@@H]3c3ccc(C(F)(F)F)cc3)c2F)CCOCC1 [Example 253, 5-fluoro-N-[[4-(methylsulfonylmethyl)tetrahydropyran-4-yl]methyl]-6-[(3S)-3-[4-(trifluoromethyl)phenyl]morpholin-4-yl]pyrimidin-4-amine] | < 1000 nM | >50 % inhibition | >80 % inhibition

Results, then the compound that gave them:

Row | IC50 [1] | Gal4 activity range @ 0.1 μM (% inhibition) [2] | Gal4 activity range @ 1 μM (% inhibition) [2] | Compound
6 | < 1000 nM | >0 % inhibition | >20 % inhibition | NC(=O)Cc1ccc(CNc2ncnc(N3CCOCC3c3ccccc3)c2F)s1 (stereo not drawn) [Example 283, 2-[5-[[[5-fluoro-6-(3-phenylmorpholin-4-yl)pyrimidin-4-yl]amino]methyl]-2-thienyl]acetamide]
7 | < 1000 nM | >50 % inhibition | – | O=C(O)CC1CCC(CNc2ncnc(N3CCCC3c3ccc(C(F)(F)F)cc3)c2F)CC1 (stereo not drawn) [Example 148, 2-[4-[[[5-fluoro-6-[2-[4-(trifluoromethyl)phenyl]pyrrolidin-1-yl]pyrimidin-4-yl]amino]methyl]cyclohexyl]acetic acid]
8 | < 500 nM | >80 % inhibition | >80 % inhibition | NC(=O)Cc1ccc(CNc2ncnc(N3CCCC3c3ccc(C(F)(F)F)cc3O)c2F)cc1 (stereo not drawn) [Example 323, 2-[4-[[[5-fluoro-6-[2-[2-hydroxy-4-(trifluoromethyl)phenyl]pyrrolidin-1-yl]pyrimidin-4-yl]amino]methyl]phenyl]acetamide]
9 | < 1000 nM | >20 % inhibition | >80 % inhibition | CS(=O)(=O)Cc1ccc(CNc2ncnc(N3CCCC3c3ccc(C(F)(F)F)cc3)c2F)cc1 (stereo not drawn) [Example 95, 5-fluoro-N-[[4-(methylsulfonylmethyl)phenyl]methyl]-6-[2-[4-(trifluoromethyl)phenyl]pyrrolidin-1-yl]pyrimidin-4-amine]
10 | < 1000 nM | – | >80 % inhibition | CC(C)(C)C[C@@H](Nc1ncnc(N2CCCC2c2ccc(C(F)(F)F)c(F)c2)c1F)C(N)=O (stereo partly drawn) [Example 72, (2R)-2-[[5-fluoro-6-[2-[3-fluoro-4-(trifluoromethyl)phenyl]pyrrolidin-1-yl]pyrimidin-4-yl]amino]-4,4-dimethyl-pentanamide]
